Measured values reported in patent US8318207B2, “Encapsulation and controlled release of small molecules for intracellular delivery using thermally responsive nanocapsules” (University of South Carolina, priority 2009, dated 2012).

Columns and labels:
[1] = Nanoencapsulation and controlled release of trehalose (dialysis, trehalose assay kit); format: physicochemical
Description: The resultant freeze-dried mixture of extra-capsular trehalose and trehalose-loaded nanocapsules was either used immediately or stored at −20° C. for future use.
To determine whether trehalose can be withheld in the nanocapsule at 37° C. for controlled release, the freeze-dried mixture of trehalose and trehalose-loaded nanocapsules was preheated to 37° C. and dissolved in 2 ml warm water at 37° C. in a 15 ml centrifuge tube. The final overall trehalose (i.e., trehalose both inside and outside the nanocapsules) concentration in the solution was 15% (w/v) and the corresponding nanocapsule (excluding the encapsulated trehalose) concentration was 10 mg/ml. Therefore, the total amount of trehalose and nanocapsules (excluding the encapsulated trehalose) in the 2 ml solution was 0.3 and 0.02 g, respectively. The solution in the centrifuge tube was then transferred either after cooling at 22° C. (i.e., cold shocking) for 15 min or immediately into a Spectra/Por dialysis bag (MWCO, 50 kDa) and placed in a beaker containing 1 L of deionized water kept warm at 37° C. with constant stirring using a hotplate/stirrer for 5 hr. It is expected that the 15 min cooling at 22° C. followed by heating at 37° C. in the beaker should result in a quick release of nanoencapsulated trehalose as a result of the more than 15 times of volume expansion and contraction in response to the temperature variation. Control experiments were performed similarly except that 2 ml of 15% (w/v) pure trehalose solution (i.e., in the absence of nanocapsules) was used in the dialysis tube. […] Trehalose concentration in the 0.5 ml samples was determined using a trehalose assay kit (Megazyme Co., Wicklow, Ireland) by following the manufacturer's instructions. […] The absorbance at 340 nm of NADPH was then measured using a Shimazu (Columbia, Md.) UV-2101PC spectrophotometer to determine the amount of trehalose in the original sample.

3T3 fibroblasts [2] = experiment: Nanocapsule assisted intracellular delivery of trehalose; format: cell-based; details: extracellular trehalose 0.165 M (nanocapsule 0.375 mg/ml where present), 40 min at 37° C.
Description: The procedures performed for cellular uptake of the trehalose loaded nanocapsules was the same as that described in section 2.6 for the uptake of empty nanocapsules. […] The cells were then detached/lysed in deionized water with the aid of a cell scraper. The cells were further lysed using three cycles of freezing and thawing in liquid nitrogen and 37° C. water bath, respectively. The lysed cell suspension was homogenized for 10 min by sonication using a Branson ultrasonic cleaner (Danbury, Conn.) followed by a brief vortex-mixing. After centrifuging at 10,000 g for 10 min, the supernatant of each sample was divided into two aliquots. One aliquot was used to determine trehalose concentration in the sample using the trehalose assay kit (Megazyme Co. Wicklow, Ireland) as described in the previous section. […] The other aliquot was used to determine cell density in the sample based on its DNA content measured using a method described in Dunn et. al, Long-term in vitro function of adult hepatocytes in a collagen sandwich configuration, Biotechnol Prog 1991 May-Jun;7(3):237-245. […] With the trehalose concentration and cell density in the sample being measured, the total amount of intracellular trehalose and the total number of cells (and thus the total osmotically active cell volume) can be calculated. Therefore, the intracellular trehalose concentration can be determined.

NIH 3T3 fibroblasts = experiment: Long-term (3-day) cell proliferation; format: cell-based; details: 0.22 M extracellular trehalose, 40 min incubation (0.5 mg/ml nanocapsules where present)
Description: For long-term cell proliferation studies, cells were seeded in 33 mm Petri dishes at a relatively low density of 1×10^5 cells/dish in 1 ml medium. At 24 h, the cells were exposed to nanocapsules in the same way as that described above for immediate cell viability studies. After cold shock, the cells were further cultured for 3 days to monitor their proliferation (long-term toxicity). This was done by taking at least 10 representative images of the samples every day including the day (taken as day 0) when the cells were exposed to nanocapsules. The total number of cells in each image were counted automatically using NIH ImageJ. […] The collagen production of cells exposed to 0 M trehalose and 0 mg/ml nanocapsules (control), 0.22 M extracellular trehalose and 0 mg/ml nanocapsules (trehalose without NE), and 0.22 M extracellular trehalose and 0.5 mg/ml extracellular nanocapsules (nanoencapsulated with trehalose) was quantified using the Sircol™ Assay kit (Biocolor, Belfast, N. Ireland). […] The absorbance at 540 nm wavelength of the dye was then measured using a BioTek Synergy 2 microplate reader (Winooski, Vt.). Collagen concentration in the collected medium was quantified by comparing its absorbance subtracted with the absorbance of the blank sample with that of the standards.

3T3 fibroblasts [3] = experiment: Collagen production, Sircol assay; format: cell-based; details: 0.22 M extracellular trehalose, 40 min incubation (0.5 mg/ml nanocapsules where present)
Description: The immediate cell viability, proliferation, and collagen production of 3T3 cells exposed to 0.22 M extracellular trehalose and 0.5 mg/ml nanocapsules (loaded with trehalose) (As will be shown later in Results and Discussion that the intracellular trehalose is ˜0.3 M under this loading condition) were further studied to test the effectiveness of the nanocapsule based approach for intracellular delivery of trehalose. Immediate cell viability and proliferation of the 3T3 cells after loading with trehalose were studied in the same way as that described for 3T3 cells loaded with empty nanocapsules in section 2.6. The collagen production of cells exposed to 0 M trehalose and 0 mg/ml nanocapsules (control), 0.22 M extracellular trehalose and 0 mg/ml nanocapsules (trehalose without NE), and 0.22 M extracellular trehalose and 0.5 mg/ml extracellular nanocapsules (nanoencapsulated with trehalose) was quantified using the Sircol™ Assay kit (Biocolor, Belfast, N. Ireland). To do this, the cells treated under the three conditions were further cultured for 3 days. […] The absorbance at 540 nm wavelength of the dye was then measured using a BioTek Synergy 2 microplate reader (Winooski, Vt.). Collagen concentration in the collected medium was quantified by comparing its absorbance subtracted with the absorbance of the blank sample with that of the standards.

time for trehalose release from the dialysis bag to reach equilibrium ([1]; 2 ml of 15% (w/v) into 1 L deionized water at 37° C.): approximately 2 hours
trehalose released from the dialysis tube ([1]; after one hour, 37° C.): more than 80%
trehalose concentration in the 1 L solution outside the dialysis tube ([1]; at 2 hr, 37° C., no cold shock): 0.3 g/L
3 day collagen production vs control (3T3 fibroblasts [3]): No significant differences
Structure (SMILES): OC[C@H]1O[C@H](O[C@H]2O[C@H](CO)[C@@H](O)[C@H](O)[C@H]2O)[C@H](O)[C@@H](O)[C@@H]1O [Trehalose w/o NE, α,α-trehalose]
intracellular trehalose concentration (3T3 fibroblasts [2]): 0.02 M
3 day cell proliferation vs control (NIH 3T3 fibroblasts): No significant differences
